Data: patent US9090600B2, “Fungicidal 4-substituted-3-{phenyl[(heterocyclylmethoxy)imino]methyl}-1,2,4-oxadizol-5(4H)-one derivatives” (BAYER INTELLECTUAL PROPERTY GMBH, priority 2011, dated 2015)
Marks after values point to notes of the source that are not given here.

Conditions: pH 2.7

Structure (SMILES)	LogP
CC(Oc1cccc(Br)c1)C(=O)Nc1cccc(CO/N=C(/c2ccccc2)c2noc(=O)n2C)n1 (stereo not drawn) [Example 179]	4.46 [a]
Cc1ccc(C(=NOCc2csc(NC(=O)Cc3ccccc3)n2)c2noc(=O)n2C)cc1 [Example 252]	3.65 [a]
Cc1cc(C)cc(COC(=O)Nc2cccc(CON=C(c3ccccc3)c3noc(=O)n3C)n2)c1 [compound 498]	4.68 [a]
CCCCCC(=O)Nc1cccc(CO/N=C(/c2ccccc2F)c2noc(=O)n2C)n1 [Example 513]	3.81 [a]
Cn1c(/C(=N\OCc2cccc(NC(=O)OCCC[Si](C)(C)C)n2)c2ccccc2)noc1=O [compound 422]	5.28 [a]
Cn1c(/C(=N\OCc2cccc(NC(=O)OCCOCCCl)n2)c2ccccc2)noc1=O [compound 447]	3.29 [a]
CCCCCC#CCOC(=O)Nc1cccc(CO/N=C(/c2ccccc2)c2noc(=O)n2C)n1 [compound 415]	4.86 [a]
Cn1c(C(=NOCc2cccc(N)n2)c2ccccc2F)noc1=O [Example 510]	1.23 [a]
Cn1c(/C(=N\OCc2cccc(NC(=O)COc3ccc(Cl)cc3Cl)n2)c2ccccc2)noc1=O [Example 274]	4.61 [a]
Cn1c(/C(=N\OCc2csc(NC(=O)COc3cccc(Cl)c3)n2)c2ccccc2)noc1=O [Example 368]	3.87 [a]
CC(C)(C)OC(=O)Nc1cccc(CON=C(C(N)=NO)c2ccccc2F)n1 (mixture of isomers) [Example V-5]	2.68 [a]
Cn1c(/C(=N\OCc2cccc(NC(=O)OCc3ccc(F)cc3)n2)c2ccccc2)noc1=O [compound 528]	3.99 [a]
CCCCC(=O)Nc1nc(CO/N=C(/c2ccccc2Cl)c2noc(=O)n2C)cs1 [Example 481]	3.53 [a]
Cn1c(C(=NOCc2cccc(NC(=O)OC(C)(C)C)n2)c2cccc(F)c2F)noc1=O [Example 249]	3.94 [a]
Cn1c(/C(=N\OCc2cccc(NC(=O)OCCCC3CCCC3)n2)c2ccccc2)noc1=O [compound 408]	5.31 [a]
CCCCOC(=S)Nc1cccc(CO/N=C(/c2ccccc2)c2noc(=O)n2C)n1 [Example 183]	4.53 [a]
CCCCC#CCOC(=O)Nc1cccc(CO/N=C(/c2ccccc2)c2noc(=O)n2C)n1 [compound 418]	4.51 [a]
CCCCCOC(=O)Nc1cccc(CO/N=C(/c2ccccc2F)c2noc(=O)n2C)n1 [Example 444]	4.34 [a]
CCCC(C)C(=O)Nc1cccc(CO/N=C(/c2ccccc2F)c2noc(=O)n2C)n1 (stereo not drawn) [Example 449]	3.73 [a]
C=CCC(C)OC(=O)Nc1cccc(CO/N=C(/c2ccccc2)c2noc(=O)n2C)n1 (racemic) [compound 479]	4.01 [a]
Cc1ccc(C(=NOCc2csc(NC(=O)OC3CCCCC3)n2)c2noc(=O)n2C)cc1 [Example 339]	4.48 [a]
CC(C)(C)OC(=O)Nc1cccc(CO/N=C(\c2noc(=O)[nH]2)c2ccccc2F)n1 [Example 193]	3.68 [a]
CCCOCCOC(=O)Nc1cccc(CO/N=C(/c2ccccc2)c2noc(=O)n2C)n1 [compound 531]	3.57 [a]
CCCCC(=O)Nc1nc(CO/N=C(/c2cccc(F)c2)c2noc(=O)n2C)cs1 [Example 370]	3.48 [a]
CC(C)(C)OC(=O)Nc1cccc(CON=C(C(N)=NO)c2ccccc2)n1 (mixture of isomers) [Example V-11]	2.54 [a]

Structure (SMILES)	LogP
CCCCOC(=O)Nc1nc(CO/N=C(/c2ccccc2Cl)c2noc(=O)n2C)cs1 [Example 519]	3.85 [a]
CCOCCOCCOC(=O)Nc1cccc(CO/N=C(/c2ccccc2)c2noc(=O)n2C)n1 [compound 439]	3.13 [a]
Cn1c(/C(=N\OCc2cccc(NC(=O)OCC3CCCCO3)n2)c2ccccc2)noc1=O (stereo not drawn) [compound 433]	3.5 [a]
Cc1ccc(COC(=O)Nc2cccc(CO/N=C(/c3ccccc3)c3noc(=O)n3C)n2)cc1 [compound 546]	4.31 [a]
Cc1ccc(C(=NOCc2csc(N(C)C=O)n2)c2noc(=O)n2C)cc1 [Example 360]	3.06 [a]
CC#CCC(C)OC(=O)Nc1cccc(CO/N=C(/c2ccccc2)c2noc(=O)n2C)n1 (racemic) [compound 455]	3.89 [a]
Cn1c(/C(=N\OCc2cccc(NC(=O)OCc3ccccn3)n2)c2ccccc2)noc1=O [compound 437]	2.64 [a]
CC(C)CSC(=O)Nc1cccc(CO/N=C(/c2ccccc2)c2noc(=O)n2C)n1 [Example 241]	4.39 [a]
C=CCOCCOC(=O)Nc1cccc(CON=C(c2ccccc2)c2noc(=O)n2C)n1 [compound 490]	3.37 [a]
COc1ccccc1COC(=O)Nc1cccc(CO/N=C(/c2ccccc2)c2noc(=O)n2C)n1 [compound 409]	4.06 [a]
COc1ccc(/C(=N/OCc2cccc(NC(=O)OC(C)(C)C)n2)c2noc(=O)[nH]2)cc1 [Example 333]	3.69 [a]
Cn1c(/C(=N\OCc2cccc(NC(=O)Cc3ccc(Cl)cc3)n2)c2ccccc2)noc1=O [Example 196]	3.92 [a]
Cn1c(C(=NOCc2cccc(NC(=O)OCC3CCCO3)n2)c2ccccc2)noc1=O (stereo not drawn) [compound 483]	3.11 [a]
Cn1c(/C(=N\OCc2cccc(NC(=O)COc3ccc(Br)cc3)n2)c2ccccc2)noc1=O [Example 65]	4.2 [a]
CC(C)c1cccc(OC(=O)Nc2cccc(CO/N=C(/c3ccccc3)c3noc(=O)n3C)n2)c1 [compound 553]	4.64 [a]
CCCc1ccccc1OC(=O)Nc1cccc(CO/N=C(/c2ccccc2)c2noc(=O)n2C)n1 [compound 426]	4.54 [a]
CCCOC(=S)Nc1cccc(CO/N=C(/c2ccccc2)c2noc(=O)n2C)n1 [Example 283]	4.11 [a]
CCCCCC(=O)Nc1nc(CO/N=C(/c2ccccc2Cl)c2noc(=O)n2C)cs1 [Example 538]	3.89 [a]
Cn1c(/C(=N\OCc2cccc(NC(=O)OCc3cccnc3)n2)c2ccccc2)noc1=O [compound 434]	2.17 [a]
CCCc1cccc(OC(=O)Nc2cccc(CO/N=C(/c3ccccc3)c3noc(=O)n3C)n2)c1 [compound 469]	4.72 [a]
Cn1c(/C(=N\OCc2cccc(NC(=O)COc3ccc(Cl)cc3)n2)c2ccccc2)noc1=O [Example 402]	4.1 [a]
CCC/C=C\COC(=O)Nc1cccc(CO/N=C(/c2ccccc2)c2noc(=O)n2C)n1 [compound 535]	4.53 [a]
COC(C)(C)CCOC(=O)Nc1cccc(CO/N=C(/c2ccccc2)c2noc(=O)n2C)n1 [compound 457]	3.59 [a]
Cn1c(/C(=N\OCc2cccc(NC(=O)OC3CCCCC3)n2)c2cccc(F)c2F)noc1=O [Example 417]	4.46 [a]
CCC=CCCCOC(=O)Nc1cccc(CON=C(c2ccccc2)c2noc(=O)n2C)n1 [compound 488]	4.78 [a]

Structure (SMILES)	LogP
COC(=O)C(C)COC(=O)Nc1cccc(CON=C(c2ccccc2)c2noc(=O)n2C)n1 (stereo not drawn) [compound 491]	3.33 [a]
CCOC(=O)COC(=O)Nc1cccc(CO/N=C(/c2ccccc2)c2noc(=O)n2C)n1 [compound 554]	3.21 [a]
Cn1c(/C(=N\OCc2cccc(NC(=O)COc3cccc(Cl)c3)n2)c2ccccc2)noc1=O [Example 105]	4.1 [a]
COc1ccc(C(=O)Nc2nc(CO/N=C(/c3ccccc3)c3noc(=O)n3C)cs2)cc1 [Example 393]	3.48 [a]
CC(CC1CC1)OC(=O)Nc1cccc(CO/N=C(/c2ccccc2)c2noc(=O)n2C)n1 (racemic) [compound 475]	4.32 [a]
Cn1c(/C(=N\OCc2cccc(NC(=O)COc3ccc(F)cc3)n2)c2ccccc2)noc1=O [Example 66]	3.73 [a]
CC(Oc1ccc(Cl)cc1)C(=O)Nc1cccc(CON=C(c2ccccc2)c2noc(=O)n2C)n1 (stereo not drawn) [Example 260]	4.35 [a]
CC(C)(C)OC(=O)Nc1cccc(CON=C(c2noc(=O)[nH]2)c2cccc(F)c2F)n1 [Example 460]	3.76 [a]
CC(COC(=O)Nc1cccc(CO/N=C(/c2ccccc2)c2noc(=O)n2C)n1)CC(C)(C)C (stereo not drawn) [compound 451]	5.39 [a]
CCCCSC(=S)Nc1nc(CON=C(c2ccccc2)c2noc(=O)n2C)cs1 [Example 512]	4.81 [a]
Cn1c(/C(=N\OCc2csc(NC(=O)COc3ccc(Cl)cc3)n2)c2ccccc2)noc1=O [Example 164]	3.85 [a]
CCCCCOC(=O)Nc1nc(CO/N=C(/c2cccc(F)c2)c2noc(=O)n2C)cs1 [Example 150]	4.19 [a]
Cc1ccc(/C(=N/OCc2csc(NC(=O)C(C)Oc3ccccc3)n2)c2noc(=O)n2C)cc1 (stereo not drawn) [Example 319]	3.99 [a]
C#CCCCOC(=O)Nc1cccc(CO/N=C(/c2ccccc2)c2noc(=O)n2C)n1 [compound 436]	3.51 [a]
CSCCCOC(=O)Nc1cccc(CO/N=C(/c2ccccc2)c2noc(=O)n2C)n1 [compound 516]	3.68 [a]
Cn1c(/C(=N\OCc2cccc(NC(=O)OCCCC(F)(F)C(F)(F)F)n2)c2ccccc2)noc1=O [Example 293]	4.29 [a]
CC(C)C1(C(=O)Nc2cccc(CO/N=C(/c3ccccc3)c3noc(=O)n3C)n2)CC1(Cl)Cl (racemic) [Example 371]	4.35 [a]
CC=CCCCOC(=O)Nc1cccc(CON=C(c2ccccc2)c2noc(=O)n2C)n1 [compound 505]	4.39 [a]
Cn1c(/C(=N\OCc2cccc(NC(=O)OCC(Cl)Cl)n2)c2ccccc2)noc1=O [compound 461]	3.74 [a]
COc1cccc(/C(=N/OCc2cccc(NC(=O)OC(C)CC(C)C)n2)c2noc(=O)n2C)c1 (stereo not drawn) [Example 149]	4.72 [a]
Cn1c(/C(=N\OCc2csc(NC(=O)C(F)(F)Oc3ccccc3)n2)c2ccccc2)noc1=O [Example 220]	3.89 [a]
Cn1c(/C(=N\OCc2cccc(NC(=O)OCCc3ccccn3)n2)c2ccccc2)noc1=O [compound 471]	2.07 [a]
CC(C)OCCOC(=O)Nc1cccc(CO/N=C(/c2ccccc2)c2noc(=O)n2C)n1 [compound 545]	3.44 [a]
CCCCCCCOC(=O)Nc1cccc(CO/N=C(/c2ccccc2)c2noc(=O)n2C)n1 [compound 419]	5.25 [a]
Cn1c(/C(=N\OCc2cccc(NC(=O)OCCc3cccc(Cl)c3)n2)c2ccccc2)noc1=O [Example 359]	4.51 [a]
